The record followed here is patent US9029399B2, “17α-hydroxylase/C17,20-lyase inhibitors” (Novartis AG, priority 2011, dated 2015).

One experiment has as its target Rat CYP 17 Lyase (Rattus norvegicus (Rat), UniProt P11715). As to the kind of experiment: Rat CYP17 lyase model, rat testes microsomes. Format: biochemical. The conditions noted are these: substrate 0.5 μM, second value of Human/Rat cell, read-out: Lyase IC 50 Rat. As to the method:
For the Rat CYP 17 Lyase Model:
The same procedure described above was used but using rat testes microsomes as the source and with a substrate concentration of 0.5 μM.

Experiment [1] concerns the target Human CYP17 enzyme (Cytochrome P450, 17-20 lyase) (Homo sapiens (Human), UniProt P05093). Briefly: CYP17 lyase assay, recombinant human CYP17 enzyme, 17-α-hydroxy pregnenolone [21-3H] substrate. The experiment is classed as biochemical. The conditions noted are these: recombinant human CYP17, first value of Human/Rat cell; read-out: Lyase IC 50 Human. The source says: 1) Cvtochrome P450, 17-20 Lyase (CYP17-Lyase) Assay Development Using Recombinant Human CYP17 Enzyme and 17-α-Hydroxy Pregnenolone [21-3H] as the Substrate
Cytochrome P450, 17-α-Hydroxylase, 17-20 lyase (CYP17) is a multi functional enzyme that plays a key role in the biosynthesis of steroid hormones. […] In the hydroxylation reaction, it converts progesterone and pregnenolone to the corresponding hydroxylated products 17-α-hydroxy progesterone and 17-α-hydroxy pregnenolone. In the lyase reaction, it catalyzes the conversion of these hydroxylated substrates to Androstenedione and Dehydroepiandrosterone (DHEA) respectively. In the Cyp17 lyase assay described here, the conversion of 17-α-hydroxy pregnenolone to Dehydroepiandrosterone and acetic acid is being monitored.
The conversion of 17-α-hydroxy pregnenolone to Dehydroepiandrosterone is accompanied by the release of acetic acid. In the Cyp17 lyase assay, 17-α-hydroxy pregnenolone labeled with tritium (3H) at position 21 is used as the substrate. Chloroform extraction removes the radioactive steroids and acetic acid is taken into aqueous layer. The tritiated acetic acid released in the assay thus extracted is quantified to determine the enzyme activity.
Human Cyp 17 gene was cloned and expressed in Adenoviral expression system in A549 cell lines. The purified cell membrane preparations were used as the source for Human CYP17 enzyme. Total protein concentration: 8 mg/mL.
For routine screening, the assay was set up with 16 μg of enzyme in 50 μL reaction volume. 17α-hydroxy pregnenolone [21-3H] was added to a final concentration of […] NADPH is used at a final concentration of 4.2 mM. Total reaction volume was made up to 50 μL with 50 mM Phosphate buffer pH 7.5. The reaction mixture was incubated at room temperature for 90 minutes with gentle shaking. The reaction was stopped by the addition of 100 μl, of buffer. 500 μl, of 5% freshly prepared activated charcoal was added to the solution and mixed well by vortexing. The samples were centrifuged at 17568×g for 5 minutes. (14000 rpm). The supernatant was carefully transferred to fresh tube and 1.3 mL of scintillation fluid was added, mixed by vortexing.
The measurements were carried out in 2.0 mL Eppendorf™ tubes. Each tube was counted for 1 minute. The amount of tritiated acetic acid released is proportional to the lyase activity. Percent lyase activity in presence of inhibitor was calculated using the formula given below.
[formula] Sample: Enzyme reaction in presence of inhibitor. Positive control: Enzyme reaction without inhibitor but containing DMSO at 1% final concentration. Blank—Contains all reagents except enzyme. % Inhibition=100%−% Lyase activity
For IC50 determination, the % inhibition was plotted as a function of inhibitor concentration. The data was fitted to sigmoidal equation using Graphpad Prism® software IV to generate IC50 values.

Chain of Human CYP17 enzyme (Cytochrome P450, 17-20 lyase) (P05093 whole entry): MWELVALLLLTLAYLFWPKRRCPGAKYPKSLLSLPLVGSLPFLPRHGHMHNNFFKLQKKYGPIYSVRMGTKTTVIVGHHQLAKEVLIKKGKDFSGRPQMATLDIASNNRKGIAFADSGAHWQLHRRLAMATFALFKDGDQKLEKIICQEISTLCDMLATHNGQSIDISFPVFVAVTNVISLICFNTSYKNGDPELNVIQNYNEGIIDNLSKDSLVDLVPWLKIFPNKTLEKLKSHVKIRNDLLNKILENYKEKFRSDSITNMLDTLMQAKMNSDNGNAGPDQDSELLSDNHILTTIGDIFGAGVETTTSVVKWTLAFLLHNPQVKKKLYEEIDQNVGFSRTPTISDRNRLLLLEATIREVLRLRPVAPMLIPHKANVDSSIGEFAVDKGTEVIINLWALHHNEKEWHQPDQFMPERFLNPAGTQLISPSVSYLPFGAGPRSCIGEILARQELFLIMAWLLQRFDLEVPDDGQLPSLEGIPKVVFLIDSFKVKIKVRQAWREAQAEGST
Chain of Rat CYP 17 Lyase (P11715 whole entry): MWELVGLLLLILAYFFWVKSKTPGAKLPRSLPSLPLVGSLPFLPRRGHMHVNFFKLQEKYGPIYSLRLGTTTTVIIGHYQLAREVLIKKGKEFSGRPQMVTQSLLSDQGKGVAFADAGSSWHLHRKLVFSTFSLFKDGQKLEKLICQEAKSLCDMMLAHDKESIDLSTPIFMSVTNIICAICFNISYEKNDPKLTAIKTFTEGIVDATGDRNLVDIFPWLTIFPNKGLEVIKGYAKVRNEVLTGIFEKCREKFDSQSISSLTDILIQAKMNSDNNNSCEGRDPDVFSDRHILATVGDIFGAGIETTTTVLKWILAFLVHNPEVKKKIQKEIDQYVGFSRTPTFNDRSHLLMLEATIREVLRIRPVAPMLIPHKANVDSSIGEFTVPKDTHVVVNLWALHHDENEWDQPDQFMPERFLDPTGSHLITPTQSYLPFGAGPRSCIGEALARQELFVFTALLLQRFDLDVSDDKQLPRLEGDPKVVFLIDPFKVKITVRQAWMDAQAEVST

`O=C1N(c2ccnc(Cl)c2)CCN1c1cnccc1C1CC1` [Example 1A, 1-(2-chloropyridin-4-yl)-3-(4-cyclopropylpyridin-3-yl)imidazolidin-2-one]: the IC50 on Rat CYP 17 Lyase came to 2.7 nM; in experiment [1], 8 nM.
Taken in the same sequence, the figures for `O=C1N(c2ccnc(C(F)(F)F)c2)CCN1c1cnccc1C1CC1` [Example 2A, 1-(4-cyclopropylpyridin-3-yl)-3-(2-(trifluoromethyl)pyridin-4-yl)imidazolidin-2-one] were 1.1 nM and 9 nM.
With `O=C1N(c2cnccc2C2CC2)[C@@H]2C[C@@H]2N1c1ccnc(C(F)(F)F)c1` [Example 32A-II, (1R,5S)-2-(4-cyclopropylpyridin-3-yl)-4-(2-(trifluoromethyl)pyridin-4-yl)-2,4-diazabicyclo[3.1.0]hexan-3-one], the figures for the IC50 (on Rat CYP 17 Lyase; in experiment [1]) were 3 nM and 6.9 nM, respectively.
In the case of `O=C1N(c2ccc3ccsc3c2)CCN1c1cnccc1C1CC1` [Example 16A, 1-(benzo[b]thiophen-6-yl)-3-(4-cyclopropylpyridin-3-yl)imidazolidin-2-one], in experiment [1], the IC50 amounted to 7 nM.
Same read-out and setting: the figure for `O=C1N(c2ccc3c(c2)CCC3)CCN1c1cnccc1C1CC1` [Example 21A, 1-(4-cyclopropylpyridin-3-yl)-3-(2,3-dihydro-1H-inden-5-yl)imidazolidin-2-one] is 17 nM.
Same read-out and setting: the figure for `Cc1nc(Cl)cc(N2CCN(c3cnccc3C3CC3)C2=O)n1` [Example 7A, 1-(6-chloro-2-methylpyrimidin-4-yl)-3-(4-cyclopropylpyridin-3-yl)imidazolidin-2-one] is 41 nM; for `Cc1c(F)sc2ccc(N3CCN(c4cnccc4C4CC4)C3=O)cc12` [Example 24A, 1-(4-Cyclopropyl-pyridin-3-yl)-3-(2-fluoro-3-methylbenzo[b]thiophen-5-yl)-imidazolidin-2-one] it is 19 nM; for `Cc1csc2cc(N3CCN(c4cnccc4C4CC4)C3=O)ccc12` [Example 18A, 1-(4-cyclopropylpyridin-3-yl)-3-(3-methylbenzo[b]thiophen-6-yl)imidazolidin-2-one] it is 76 nM.
Take `O=C1N(c2ccnc(Cl)c2)CCN1c1cnccc1C1(O)CCCC1` [Example 35A, 1-(2-chloropyridin-4-yl)-3-[4-(1-hydroxycyclopentyl)-pyridin-3-yl]-imidazolidin-2-one]: the IC50 in experiment [1] is 341 nM.
For the molecule `O=C1N(c2cc(Cl)nc(C(F)(F)F)c2)CCN1c1cnccc1C1CC1` [Example 37A, 1-(2-chloro-6-(trifluoromethyl)pyridin-4-yl)-3-(4-cyclopropylpyridin-3-yl)imidazolidin-2-one], in experiment [1], the IC50 came to 5 nM.
`COc1cc(N2C(=O)N(c3cnccc3C3CC3)[C@H]3C[C@H]32)ccn1` [Example 31A-1, (1S,5R)-2-(4-cyclopropylpyridin-3-yl)-4-(2-methoxypyridin-4-yl)-2,4-diazabicyclo[3.1.0]hexan-3-one]: the IC50 in experiment [1] was found to be 169 nM.
With `COc1cc(N2CCN(c3cnccc3C3CC3)C2=O)ccn1` [Example 9A, 1-(4-cyclopropylpyridin-3-yl)-3-(2-methoxypyridin-4-yl)imidazolidin-2-one], the IC50 at Rat CYP 17 Lyase worked out at 4.6 nM; in experiment [1], 42 nM.
In the case of `Cc1cc(N2CCN(c3cnccc3C3CC3)C2=O)ncn1` [Example 41A, 1-(4-cyclopropylpyridin-3-yl)-3-(6-methylpyrimidin-4-yl)imidazolidin-2-one], the IC50 in experiment [1] stood at 70 nM.
Regarding `O=C1N(c2ccnc(Cl)c2)CCN1c1cnccc1C1CCCC1` [Example 34A, 1-(2-chloropyridin-4-yl)-3-(4-cyclopentyl-pyridin-3-yl)-imidazolidin-2-one], the IC50 in experiment [1] is 13 nM.
With `O=C1N(c2cc(Cl)nc(C(F)(F)F)n2)CCN1c1cnccc1C1CC1` [Example 45A, 1-(6-chloro-2-(trifluoromethyl)pyrimidin-4-yl)-3-(4-cyclopropylpyridin-3-yl) imidazolidin-2-one], in experiment [1], the IC50 came to 10 nM.
On the same count and under the same terms, the figure for `O=C1N(c2ccc3c(c2)OC(F)(F)O3)CCN1c1cnccc1C1CC1` [Example 17A, 1-(4-cyclopropylpyridin-3-yl)-3-(2,2-difluorobenzo[d][1,3]dioxol-5-yl)imidazolidin-2-one] is 58 nM.
For the molecule `COc1cc(N2C(=O)N(c3cnccc3C3CC3)[C@@H]3C[C@@H]32)ccn1` [Example 31A-II, (1R,5S)-2-(4-cyclopropylpyridin-3-yl)-4-(2-methoxypyridin-4-yl)-2,4-diazabicyclo[3.1.0]hexan-3-one], the IC50 in experiment [1] is 12 nM.
With `O=C1N(c2cc(Cl)ncn2)CCN1c1cnccc1C1CC1` [Example 10A, 1-(6-chloropyrimidin-4-yl)-3-(4-cyclopropylpyridin-3-yl)imidazolidin-2-one], the IC50 in experiment [1] worked out at 121 nM.
For the molecule `COc1cc(N2CCN(c3cnccc3C3CC3)C2=O)ncn1` [Example 40A, 1-(4-cyclopropylpyridin-3-yl)-3-(6-methoxypyrimidin-4-yl)imidazolidin-2-one], the IC50 in experiment [1] came out at 84 nM.
